Measurements reported in patent US10722514B2 (FLX Bio, Inc., priority 2017, dated 2020).
Where two headings read alike, the source gives them in different places.

Target: T1, recombinant full-length USP7 (Homo sapiens, UniProt Q93009)
T1 construct: A 25 μl reaction volume containing recombinant full-length USP7 (62 pM)
Test: USP7-mediated ubiquitin-rhodamine cleavage assay
Assay type: biochemical
Details: recombinant full-length USP7 62 pM, ubiquitin-rhodamine 100 nM, 1 hour reaction at room temperature
Procedure, shortened: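 Full-length recombinant USP7 (62 pM) in 20 mM HEPES pH 7.3, 150 mM NaCl, 1 mM TCEP, 125 μg/ml BSA, 1% DMSO, preincubated with compound 30 min at RT. Ubiquitin-rhodamine (100 nM final) cleaved 1 h at RT in the dark, stopped with acetic acid; rhodamine fluorescence read, IC50 by 4-parameter nonlinear fit.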

[1] = 30-minute incubation with compound, read-out: Potency: USP7 IC50
[2] = 30-minute pre-incubation, read-out: Potency (USP7 IC50)

T1 sequence (Q93009 whole entry): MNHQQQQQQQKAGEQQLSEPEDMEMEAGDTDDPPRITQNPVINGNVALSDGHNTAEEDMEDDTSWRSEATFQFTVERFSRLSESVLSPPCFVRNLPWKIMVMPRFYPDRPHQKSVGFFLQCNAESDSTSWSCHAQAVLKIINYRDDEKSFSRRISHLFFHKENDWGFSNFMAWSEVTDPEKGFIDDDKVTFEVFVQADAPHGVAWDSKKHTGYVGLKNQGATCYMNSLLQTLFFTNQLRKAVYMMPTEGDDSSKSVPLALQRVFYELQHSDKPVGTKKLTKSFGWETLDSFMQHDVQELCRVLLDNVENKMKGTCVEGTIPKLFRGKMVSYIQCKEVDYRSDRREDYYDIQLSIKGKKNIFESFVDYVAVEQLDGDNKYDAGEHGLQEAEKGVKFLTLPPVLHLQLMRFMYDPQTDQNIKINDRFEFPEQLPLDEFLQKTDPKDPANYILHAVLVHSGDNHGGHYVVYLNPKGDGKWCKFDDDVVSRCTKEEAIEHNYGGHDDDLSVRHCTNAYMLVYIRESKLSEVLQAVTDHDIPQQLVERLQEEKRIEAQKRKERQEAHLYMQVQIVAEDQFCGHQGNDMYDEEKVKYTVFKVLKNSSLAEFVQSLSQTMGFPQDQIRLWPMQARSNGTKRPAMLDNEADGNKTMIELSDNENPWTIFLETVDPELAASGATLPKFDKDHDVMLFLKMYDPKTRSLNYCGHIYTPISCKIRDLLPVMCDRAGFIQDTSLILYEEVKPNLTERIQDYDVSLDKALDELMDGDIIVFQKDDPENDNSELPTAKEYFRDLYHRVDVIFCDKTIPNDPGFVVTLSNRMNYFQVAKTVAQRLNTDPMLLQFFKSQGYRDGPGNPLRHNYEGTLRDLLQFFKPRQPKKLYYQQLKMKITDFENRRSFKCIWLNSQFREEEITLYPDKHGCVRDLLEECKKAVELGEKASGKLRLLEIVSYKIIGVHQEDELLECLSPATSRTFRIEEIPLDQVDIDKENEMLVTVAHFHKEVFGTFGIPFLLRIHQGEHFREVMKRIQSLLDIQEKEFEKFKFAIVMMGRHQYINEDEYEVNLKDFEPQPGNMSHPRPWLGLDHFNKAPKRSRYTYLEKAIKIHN

Row | Compound | IC50 [1] | IC50 [2]
1 | Cc1cc(Cl)cc(-c2ccnc3cc(Cn4c(=O)ccn(CC(F)(F)F)c4=O)sc23)c1OC1CNCC1(C)C (stereo not shown) [Example 346, 3-[[7-[5-chloro-2-(4,4-dimethylpyrrolidin-3-yl)oxy-3-methyl-phenyl]thieno[3,2-b]pyridin-2-yl]methyl]-1-(2,2,2-trifluoroethyl)pyrimidine-2,4-dione] | < 1 µM | –
2 | Cc1cc(Cl)cc(-c2ccnc3cc(Cn4c(=O)c(F)cn(C)c4=O)sc23)c1O[C@@H]1CNC[C@@H]1F [Example 470, 3-[[7-[5-chloro-2-[(3R,4S)-4-fluoropyrrolidin-3-yl]oxy-3-methyl-phenyl]thieno[3,2-b]pyridin-2-yl]methyl]-5-fluoro-1-methyl-pyrimidine-2,4-dione] | – | < 1 µM
3 | Cc1cc(Cl)cc(-c2ccnc3cc(Cn4c(=O)ccn(C)c4=O)sc23)c1O[C@H]1CCNC[C@@H]1F [Example 569] | – | < 1 µM
4 | Cc1cc(Cl)cc(-c2ccnc3cc(CN4C(=O)CCC4=O)sc23)c1O[C@@H]1CCCNCC1 [Example 270, (R)-1-((7-(2-(Azepan-4-yloxy)-5-chloro-3-methylphenyl)thieno[3,2-b]pyridin-2-yl)methyl)pyrrolidine-2,5-dione] | < 1 µM | –
5 | Cc1cc(C#N)cc(-c2ccnc3cc(CN4C(=O)CCC4=O)sc23)c1OCC1(C#N)CNC1 [Example 27, 3-((4-Cyano-2-(2-((2,5-dioxopyrrolidin-1-yl)methyl)thieno[3,2-b]pyridin-7-yl)-6-methylphenoxy)methyl)azetidine-3-carbonitrile] | < 1 µM | –
6 | CC(=O)N1CC[C@@H](Oc2c(C)cc(Cl)cc2-c2ccnc3cc(Cn4c(=O)ccn(CC(F)(F)F)c4=O)sc23)[C@@H](C)C1 [Example 607, 3-[[7-[2-[[(3S,4R)-1-acetyl-3-methyl-4-piperidyl]oxy]-5-chloro-3-methyl-phenyl]thineo[3,2-b]pyridin-2-yl]methyl]-1-(2,2,2-trifluoroethyl)pyrimidine-2,4-dione] | – | < 1 µM
7 | Cc1cc(Cl)cc(-c2ccnc3cc(CN4C(=O)CCC4=O)sc23)c1O[C@@H]1CN(C2CCC2)C[C@@H]1F [Example 322, 1-[[7-[5-chloro-2-[(3R,4S)-1-cyclobutyl-4-fluoro-pyrrolidin-3-yl]oxy-3-methyl-phenyl]thieno[3,2-b]pyridin-2-yl]methyl]pyrrolidine-2,5-dione] | < 1 µM | –
8 | Cc1cc(Cl)cc(-c2ccnc3cc(CN4C(=O)C[C@@H](F)C4=O)sc23)c1OC1CCNCC1 [Example 414, (3R)-1-[[7-[5-chloro-3-methyl-2-(4-piperidyloxy)phenyl]thieno[3,2-b]pyridin-2-yl]methyl]-3-fluoro-pyrrolidine-2,5-dione] | – | < 1 µM
9 | Cc1cc(C(F)(F)F)cc(-c2ccnc3cc(Cn4c(=O)[nH]cc(C)c4=O)sc23)c1O[C@@H]1CNC[C@@H]1F [Example 434, 3-[[7-[2-[(3R,4S)-4-fluoropyrrolidin-3-yl]oxy-3-methyl-5-(trifluoromethyl)phenyl]thieno[3,2-b]pyridin-2-yl]methyl]-5-methyl-1H-pyrimidine-2,4-dione] | – | < 1 µM
10 | Cc1cc(C(=O)O)cc(-c2ccnc3cc(Cn4c(=O)ccn(CC(F)(F)F)c4=O)sc23)c1O[C@H]1CCCNC1 [Example 291, 3-[2-[[2,6-dioxo-3-(2,2,2-trifluoroethyl)pyrimidin-1-yl]methyl]thieno[3,2-b]pyridin-7-yl]-5-methyl-4-[[(3S)-3-piperidyl]oxy]benzoic acid] | < 1 µM | –
11 | Cc1cc(Cl)cc(-c2ccnc3cc(CN4C(=O)C5C(C4=O)C5(C)C)sc23)c1O[C@@H]1C[C@@H]2C[C@H]1N(C)C2 (stereo partly drawn) [Example 333, 3-[[7-[5-chloro-3-methyl-2-[[(1S,4R,5R)-3-methyl-3-azabicyclo[2.2.1]heptan-5-yl]oxy]phenyl]thieno[3,2-b]pyridin-2-yl]methyl]-6,6-dimethyl-3-azabicyclo[3.1.0]hexane-2,4-dione] | < 1 µM | –
12 | Cc1cc(Cl)cc(-c2ncnc3cc(CN4C(=O)C5C(C4=O)C5(C)C)sc23)c1O[C@@H]1CNCC(C)(C)C1 (stereo partly drawn) [Example 361, 3-[[4-[5-chloro-2-[[(3S)-5,5-dimethyl-3-piperidyl]oxy]-3-methyl-phenyl]thieno[3,2-d]pyrimidin-6-yl]methyl]-6,6-dimethyl-3-azabicyclo[3.1.0]hexane-2,4-dione] | < 1 µM | –
13 | Cc1cc(Cl)cc(-c2ccnc3cc(Cn4c(=O)ccn(CC(F)(F)F)c4=O)sc23)c1O[C@H]1CN[C@H](C(F)F)C1 [Example 574, 3-[[7-[5-chloro-2-[(3R,5S)-5-(difluoromethyl)pyrrolidin-3-yl]oxy-3-methyl-phenyl]thieno[3,2-b]pyridin-2-yl]methyl]-1-(2,2,2-trifluoroethyl)pyrimidine-2,4-dione] | – | < 1 µM
14 | Cc1cc(Cl)cc(-c2ccnc3cc(CN4C(=O)CCC4=O)sc23)c1OC1CC(N)C1 (stereo not shown) [Example 437, 1-[[7-[2-(3-aminocyclobutyoxy)-5-chloro-3-methyl-phenyl]thieno[3,2-b]pyridin-2-yl]methyl]pyrrolidine-2,5-dione; 2,2,2-trifluoroacetic acid] | – | < 1 µM
15 | Cc1cc(Cl)cc(-c2ccnc3cc(CO)sc23)c1OC1CCNCC1 [Example 175, (7-(5-Chloro-3-methyl-2-(piperidin-4-yloxy)phenyl)thieno[3,2-b]pyridin-2-yl)methanol] | 1 to 10 µM | –
16 | Cc1cc(Cl)cc(-c2ccnc3cc(CN4C(=O)C5C(C4=O)C5(C)C)sc23)c1O[C@@H]1CCNC[C@@H]1F (stereo partly drawn) [Example 382, 3-[[7-[5-chloro-2-[[(3S,4R)-3-fluoro-4-piperidyl]oxy]-3-methyl-phenyl]thieno[3,2-b]pyridin-2-yl]methyl]-6,6-dimethyl-3-azabicyclo[3.1.0]hexane-2,4-dione; 2,2,2-trifluoroacetic acid] | < 1 µM | –
17 | Cc1cc(Cl)cc(-c2ccnc3cc(Cn4c(=O)ccn(CC(F)(F)F)c4=O)sc23)c1O[C@@H]1CN(C2COC2)C[C@@H]1C [Example 606, 3-[[7-[5-chloro-3-methyl-2-[(3S,4S)-4-methyl-1-(oxetan-3-yl)pyrrolidin-3-yl]oxy-phenyl]thieno[3,2-b]pyridin-2-yl]methyl]-1-(2,2,2-trifluoroethyl)pyrimidine-2,4-dione] | – | < 1 µM
18 | O=C1CCC(=O)N1Cc1cc2nccc(-c3cc(C(F)(F)F)cc(Cl)c3O[C@@H]3CNC[C@@H]3F)c2s1 [Example 54, 1-((7-(3-Chloro-2-(((3R,4S)-4-fluoropyrrolidin-3-yl)oxy)-5-(trifluoromethyl)phenyl)thieno[3,2-b]pyridin-2-yl)methyl)pyrrolidine-2,5-dione] | < 1 µM | –
19 | Cc1cc(Cl)cc(-c2ccnc3cc(CN4C(=O)C5CC5C4=O)sc23)c1OC1CCNC1C (stereo not shown) [Example 301, 3-[[7-[5-chloro-3-methyl-2-(2-methylpyrrolidin-3-yl)oxy-phenyl]thieno[3,2-b]pyridin-2-yl]methyl]-3-azabicyclo[3.1.0]hexane-2,4-dione; 2,2,2-trifluoroacetic acid] | < 1 µM | –
20 | Cc1cc(Cl)cc(-c2ccnc3cc(CN4C(=O)CCC4=O)sc23)c1O[C@@H]1CNC[C@@H]1CO [Example 98, 1-((7-(5-Chloro-2-(((3S,4R)-4-(hydroxymethyl)pyrrolidin-3-yl)oxy)-3-methylphenyl)thieno[3,2-b]pyridin-2-yl)methyl)pyrrolidine-2,5-dione] | < 1 µM | –
21 | 1-(7-(2-((3-Azabicyclo[3.1.0]hexan-6-yl)methoxy)-5-chloro-3-methylphenyl)thieno[3,2-b]pyridin-2-yl)propan-1-ol [Example 88] | 10 to 30 µM | –
22 | Cc1cc(Cl)cc(-c2ccnc3cc(Cn4c(=O)ccn(C)c4=O)sc23)c1OC1CC2CC1N(C(C)C)C2 (stereo not shown) [Example 474, 3-[[7-[5-chloro-2-[(3-isopropyl-3-azabicyclo[2.2.1]heptan-5-yl)oxy]-3-methyl-phenyl]thieno[3,2-b]pyridin-2-yl]methyl]-1-methyl-pyrimidine-2,4-dione] | – | < 1 µM
23 | Cc1cc(Cl)cc(-c2ccnc3cc(CN4C(=O)CCC4=O)sc23)c1OC1CC[C@H](C)NC1 (stereo partly drawn) [Example 462, 1-[[7-[5-chloro-3-methyl-2-[[(6S)-6-methyl-3-piperidyl]oxy]phenyl]thieno[3,2-b]pyridin-2-yl]methyl]pyrrolidine-2,5-dione; 2,2,2-trifluoroacetic acid] | – | < 1 µM
24 | Cc1cc(Cl)cc(-c2ccnc3cc(CN4C(=O)CCC4=O)sc23)c1OC1CNC(C)(C)C1 (stereo not shown) [Example 130, 1-((7-(5-Chloro-2-((5,5-dimethylpyrrolidin-3-yl)oxy)-3-methylphenyl)thieno[3,2-b]pyridin-2-yl)methyl)pyrrolidine-2,5-dione] | < 1 µM | –
25 | CCC(O)c1cc2nccc(-c3cc(C#N)cc(C)c3OCC3(C#N)CNC3)c2s1 (stereo not shown) [Example 10, 3-((4-Cyano-2-(2-(1-hydroxypropyl)thieno[3,2-b]pyridin-7-yl)-6-methylphenoxy)methyl)azetidine-3-carbonitrile] | < 1 µM | –
26 | CCn1ccc(=O)n(Cc2cc3nccc(-c4cc(Cl)cc(C)c4O[C@H]4CCCNC4)c3s2)c1=O [Example 423, 3-[[7-[5-chloro-3-methyl-2-[[(3S)-3-piperidyl]oxy]phenyl]thieno[3,2-b]pyridin-2-yl]methyl]-1-ethyl-pyrimidine-2,4-dione] | – | < 1 µM
27 | Cc1cc(Cl)cc(-c2ccnc3cc(CN4C(=O)C5C(C4=O)C5(C)C)sc23)c1OC1CNCC1(C)C (stereo not shown) [Example 369, 3-[[7-[5-chloro-2-(4,4-dimethylpyrrolidin-3-yl)oxy-3-methyl-phenyl]thieno[3.2-b]pyridin-2-yl]methyl]-6,6-dimethyl-3-azabicyclo[3.1.0]hexane-2,4-dione] | < 1 µM | –
28 | Cc1cc(Cl)cc(-c2ccnc3cc(CN4C(=O)C5C(C4=O)C5(C)C)sc23)c1OCC1(C)CNC1 (stereo not shown) [Example 400, 3-[[7-[5-chloro-3-methyl-2-[(3-methylazetidin-3-yl)methoxy]phenyl]thieno[3,2-b]pyridin-2-yl]methyl]-6,6-dimethyl-3-azabicyclo[3.1.0]hexane-2,4-dione] | < 1 µM | –
